Experiments:
Experiment in all cases: relative viability (nuclei count vs DMSO), 5 days (fraction); higher = more cells survive
Motesanib + Foretinib = compound: CC1(C)CNc2cc(NC(=O)c3cccnc3NCc3ccncc3)ccc21 [Motesanib] + COc1cc2c(Oc3ccc(NC(=O)C4(C(=O)Nc5ccc(F)cc5)CC4)cc3F)ccnc2cc1OCCCN1CCOCC1 [Foretinib] (partner 0.25 µM)
Method in brief: (§1)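 Medians of duplicate plates are given as relative viability. That measure is the nuclei count in treated wells divided by the count in vehicle wells. Counts were taken on 4× images of lung cancer cell lines in 1536-well plates, 5 days after pin-tool dosing the day after seeding with one drug alone or a fixed anchor-drug dose plus five library-drug doses (not always all listed) in √10 steps.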

[1] = compound: C[C@@]1(C(=O)Nc2ccc(F)nc2)CCCN1c1nc(Nc2cc(C3CC3)n[nH]2)c2cccn2n1 + COc1cccc2cc(-c3nc([C@H]4CC[C@H](C(=O)O)CC4)n4ncnc(N)c34)[nH]c12 [OSI-027] (partner 0.5 µM)
Method in brief: as §1

Motesanib + Lapatinib = compound: CC1(C)CNc2cc(NC(=O)c3cccnc3NCc3ccncc3)ccc21 [Motesanib] + CS(=O)(=O)CCNCc1ccc(-c2ccc3ncnc(Nc4ccc(OCc5cccc(F)c5)c(Cl)c4)c3c2)o1 [Lapatinib] (partner 2 µM)
Method in brief: as §1

[2] = compound: C[C@@]1(C(=O)Nc2ccc(F)nc2)CCCN1c1nc(Nc2cc(C3CC3)n[nH]2)c2cccn2n1 + NC(=O)Nc1cc(-c2cccc(F)c2)sc1C(=O)N[C@H]1CCCNC1 [AZD7762] (partner 0.2 µM)
Method in brief: as §1

Cell Line	relative viability (Motesanib + Foretinib; first compound 0.01 µM)	relative viability (Motesanib + Foretinib; first compound 0.03162 µM)	relative viability (Motesanib + Foretinib; first compound 0.1 µM)	relative viability (Motesanib + Foretinib; first compound 0.3162 µM)	relative viability (Motesanib + Foretinib; first compound 1 µM)	relative viability ([1]; first compound 0.04 µM)	relative viability ([1]; first compound 0.1265 µM)	relative viability ([1]; first compound 0.4 µM)	relative viability ([1]; first compound 1.265 µM)	relative viability (Motesanib + Lapatinib; first compound 0.01 µM)	relative viability (Motesanib + Lapatinib; first compound 0.03162 µM)	relative viability (Motesanib + Lapatinib; first compound 0.1 µM)	relative viability (Motesanib + Lapatinib; first compound 0.3162 µM)	relative viability (Motesanib + Lapatinib; first compound 1 µM)	relative viability ([2]; first compound 0.04 µM)	relative viability ([2]; first compound 0.1265 µM)	relative viability ([2]; first compound 0.4 µM)	relative viability ([2]; first compound 1.265 µM)
NCI-H1666	0.979	0.956	0.947	1.03	1.01	0.611	0.488	0.568	0.426	0.882	0.709	0.691	0.69	0.667	0.838	0.667	0.642	0.552
NCI-H1734	0.932	0.883		0.879	0.968	0.42	0.29	0.268	0.293	0.99	1.14	1.03	1.14	0.99	0.54	0.459	0.377	0.446
NCI-H1755	0.904	0.914	0.925	1.01	0.842	0.695	0.355	0.589	0.484	1.02	1.05	1.08	1.28	0.997	0.481	0.424	0.378	0.406
NCI-H1793	0.815	0.566	0.721	0.591	0.805	0.254	0.195		0.196	0.858	0.636	0.64	0.701	0.773	0.463	0.501	0.393	0.456
NCI-H1915	1.07	1.06	1.09	1.14	1.06	0.612	0.628	0.592	0.604	0.99	0.929	0.866	0.939	1.01	0.728	0.731	0.663	0.701
NCI-H1944	0.959	0.916	0.861	0.967	0.988	0.306	0.256	0.225	0.235	0.944	0.831	0.842	0.836	0.859	0.53	0.497	0.419	0.354
NCI-H1975	0.978	0.9	0.908	0.898	0.899	0.663	0.498	0.423	0.527	0.873	0.815	0.89	0.907	0.993	0.64	0.98	0.498	0.532
NCI-H1993	0.861	0.829	0.812	0.777	0.881	0.545	0.533	0.665	0.605	0.884	0.893	0.801	0.867	0.638	0.495	0.496	0.455	0.567
NCI-H2085	0.896	1.22	0.973	1.07	1.03	0.788	0.679	0.599	0.535	0.77	0.779	0.798	0.772	0.779	1.12	0.948	0.927	0.913
NCI-H2087	1.02	0.937	1.2	1.23	1.11	0.366	0.254	0.267	0.338	1.23	0.923	1.23	1.38	1.1	1.26	1.25	1.09	1.23
NCI-H2126	1.13	1.12	1.17	1.31	1.11	0.469	0.311	0.256	0.344	0.811	0.768	0.718	0.789	0.728	0.993	0.716	0.569	0.648
NCI-H2170	1.01	1.03	0.955	0.952	0.982	0.721	0.525	0.592	0.564	0.243	0.282	0.228	0.262	0.293	0.836	0.864	0.744	0.791
NCI-H2347	0.85	0.429	1.14	0.614	1.86	0.33	0.287	0.244	0.342	0.961	0.776	0.986	1.01	0.838	0.68	0.765	0.731	0.672
NCI-H2405		1.01	1.06	1.07	1.08	0.401	0.294	0.269	0.272		1.05	1.09	1.16	1.12	0.619	0.483	0.472	0.313
NCI-H3122	0.951	0.938	0.821	1.01	0.986	0.499	0.86	0.275	0.412	0.991	1.03	0.965	1.03	1.02	0.79	0.88	0.651	0.831
PC-3 [JPC-3]	1.01	1.06	1.06	1.03	1.01	0.688	0.59	0.485	0.621	0.465	0.459	0.451	0.42	0.465	0.7	0.689	0.551	0.415
PC-14	0.922	0.997	1	1.01	1.06	0.869	0.284	0.563	0.279	0.318	0.264	0.336	0.334	0.339	0.391	0.394	0.308	0.348
RERF-LC-KJ	0.876	0.866	0.848	0.864	0.892	0.51	0.306	0.334	0.346	0.895	0.876	0.958	0.827	0.853	0.976	0.688	0.737	0.723

Reference: the supplement of paper PMC10307832
